Results from patent publication US12433954B2, “Methods of activating anti-CD19 chimeric antigen receptor (CAR) T cells using amphiphilic ligand conjugates comprising CAR-targeting protein sequence motifs” (Massachusetts Institute of Technology, priority 2020, dated 2025).
Bridge positions count the residues as written; N and C are the ends. Ends that are not written are not given here. Peptide text beside a SMILES is read from it. * marks the point of attachment. Biotin = O=C1N[C@H]2[C@H](CS[C@H]2CCCCC(=O)*)N1

Legend:
[1] = tested on: FMC63 CAR T cells; experiment: In vivo CAR T cell proliferation in lymph nodes after amph-mimotope vaccination (cell trace violet dilution); parameters: species or system mice; conditions: inguinal LNs 48 hours post-vaccination; s.c. tail base with 25 μg cyclic-di-GMP; 10 ug monovalent or 20 ug bivalent
Experimental: FIG. 18A depicts a timeline for administration of CD45.1+ donor FMC63 CAR T cells to CD45.2+ recipient mice on Day 0, followed by administration of amph-mimotope or bivalent amph-mimotope on Day 1, and analysis of CAR T cell proliferation in lymph nodes harvested on Day 3 measured by cell trace violet dilution.
FIG. 18B provides histograms measuring the proliferation of FMC63 CAR T cells isolated from mice on Day 3 as depicted in FIG. 18A. The mice were administered amph-mimotope containing a mimotope with the sequence set forth in SEQ ID NO: 128 or 129 (Amph-K-A1 or Amph-K-C2 respectively) or the bivalent mimotopes depicted in FIG. 17C (amph-bi-F12-peg8 or amph-bi-F12-peg4). Control mice were administered no amph-mimotope.
CD45.1^+ donor FMC63 CAR T cells were prepared as described in Example 3 and labeled with cell trace violet according to manufacturer's protocol. 2×10^6 CAR T cells were administered into CD45.2^+ recipient mice via tail vein injection on Day 0. The following day, recipient mice were vaccinated by subcutaneous injection at the tail base with the following vaccine formulation: • (i) 10 ug of monovalent amph-mimotope (Amph-K-A1 or Amph-K-C2)+25 μg of cyclic-di-GMP in 1×PBS; or • (ii) 20 ug of amph-Bi-F12-mimotope (PEG4 or PEG8)+25 μg of cyclic-di-GMP in 1×PBS. […]

[2] = tested on: FMC63 anti-hCD19 CAR-T cells; experiment: IFNγ secretion of CAR-T cells co-cultured with amph-mimotope coated K562 cells (ELISA); type: cell-based; conditions: K562 coated with 10 μM amph-mimotope, E:T 10:1, 24 hours; compared to amphiphile only control
Experimental: ID NO: 5) at 10 μM and incubated at 37° C. for 30 minutes. The labeling reaction was stopped by pelleting cells and washing with PBS. To mimic antigen presenting cells in lymph nodes, K562 cells were decorated with amph-mimotope, and then co-cultured at an effector to target (E:T) ratio of 10:1 with FMC63 expressing CAR-T cells (hCD19-CAR; SEQ ID NO: 78) for 24 hours. The hCD19-CAR was generated in part from a previously reported CAR (Pegram, H., et al. (2012) Blood 119:18 (4133-4141) and is composed of a human CD8 signal peptide (SEQ ID NO: 87), FMC63 scFV (SEQ ID NO: 70), murine CD8 hinge (SEQ ID NO: 74), a murine CD8 transmembrane domain (SEQ ID NO: 75), a murine CD28 costimulatory domain (SEQ ID NO: 76) and a murine CD3ζ intracellular domain (SEQ ID NO: 77). The overall CAR is provided in SEQ ID NO: 78. After co-culture, cells were pelleted at 2,000×g for 5 minutes, and the supernatant was harvested for IFNγ ELISA and processed following the manufacturer's protocol (Human IFNγ ELISA MAXTM Deluxe (Biolegend)).

[3] = Micelle stability of lipid-oligonucleotide conjugates in presence of serum; type: physicochemical; conditions: for micelle stability on increasing number of guanines: in the presence of serum, compared with lipo-G6T4-CG; for percentage of intact micelles: micelles formed in aqueous solution, in the presence of serum (FBS)
Experimental: For example, in certain embodiments, a plurality of lipid conjugates is allowed to spontaneously form micelles in aqueous solution. The micelles are incubated with albumin, or a solution including albumin such as Fetal Bovine Serum (FBS). Samples can be analyzed, for example, by ELISA, size exclusion chromatography or other methods to determine if binding has occurred. Lipid conjugates can be selected as lymph node-targeting conjugates if in the presence of albumin, or a solution including albumin such as Fetal Bovine Serum (FBS), the micelles dissociate and the lipid conjugates bind to albumin as discussed above.
In certain embodiments, the linker is one or more guanines, for example between 1-10 guanines. It has been discovered that altering the number of guanines between a cargo such as a CpG oligonucleotide, and a lipid tail controls micelle stability in the presence of serum proteins. Therefore, the number of guanines in the linker can be selected based on the desired affinity of the conjugate for serum proteins such as albumin. When the cargo is a CpG immunostimulatory oligonucleotide and the lipid tail is a diacyl lipid, the number of guanines affects the ability of micelles formed in aqueous solution to dissociate in the presence of serum: 20% of the non-stabilized micelles (lipo-G0T10-CG) (SEQ ID NO: 138) were intact, while the remaining 80% were disrupted and bonded with FBS components.

[4] = tested on: FMC63 IgG antibody; experiment: Alanine scanning mutagenesis, flow cytometry binding to FMC63 IgG; parameters: species or system mouse; conditions: yeast stained with 5 μM FMC63 IgG antibody
Experimental: FIG. 11 provides a graph showing flow cytometry analysis of alanine scanning mutagenesis for […] (SEQ ID NO: 16) where each amino acid position was mutated to an alanine, or additional alanine residues (one or two) were added. Flow cytometry analysis was performed to evaluate binding to the FMC63 IgG antibody.
To determine the effect of amino acid position on binding to FMC63, an alanine mutagenesis experiment was performed were each amino acid was mutated to alanine and binding to FMC63 was assessed. Specifically, a representative mimotope, […] (SEQ ID NO: 16), was mutated at each amino acid position to generate an alanine (SEQ ID NOs: 54-63) (Table 7). To assess the tolerance of additional alanine residues, one alanine or two alanine residues were inserted between the two cysteine residues (SEQ ID NOs: 52 and 53) to determine the impact the loop structure had on mimotope binding to FMC63. To generate mutations, two complementary oligos with the codon replaced at the desired site were denatured at 95° C. and annealed by slow cooling to 25° C. (decreasing by 0.5° C./second). The annealed oligos were treated with T4 PNK (T4 Polynucleotide Kinase) to add a terminal phosphate, and then ligated into digested pCT-CON2 vector. Positive clones having the correct oligo inserted were tested and transformed into competent EBY100 yeast cells. […]

[5] = tested on: FMC63 scFv; experiment: Dissociation kinetics of FMC63 scFv from yeast clones (flow cytometry); type: binding, mouse; conditions: yeast clones labeled, washed, incubated 0-72 hours
Experimental: The yeast clones were labeled with the scFv, washed, and incubated for 0-72 hours as indicated prior to analysis.
The dissociation kinetics following binding of the mimotopes to FMC63 were also investigated. […] The yeast were then washed, and incubated for 0-72 hours prior to analysis of the degree of FMC63 scFv labeling by flow cytometry.

[6] = tested on: FMC63; experiment: FMC63 binding of mimotope-expressing yeast after DTT treatment (flow cytometry); parameters: species or system mouse; conditions: DTT 0.01-10 mM, 30 minutes, room temperature; yeast-displayed
Experimental: To determine the formation of an intra-peptidyl disulfide bridge formed by the two Cys residues, mimotope expressing yeast were treated in reducing conditions and binding of the mimotope to FMC63 IgG was measured. […] Similarly, control cells expressing Aga2p (connected to the yeast surface by disulfide bridge) were treated with DTT. Following treatment, cells were labelled with biotinylated Aga2p or FMC63 and binding was measured by flow cytometry. At mild reducing conditions, Aga2p was maintained on the yeast surface while mimotope binding to FMC63 was abolished (FIG. 6). The inhibition of mimotope binding to FMC63 following treatment with a reducing agent reaffirms the formation of the disulfide bond and its importance for binding.

[7] = target: FMC63 IgG; experiment: ELISA of N-terminally biotinylated F12 variants on streptavidin plate, binding to FMC63 IgG; parameters: species or system mouse; conditions: read-out: Kd (nM), FMC63 binding affinity of F12 variants with N-terminal flanking residues

Chain of FMC63 IgG antibody (as listed by the source): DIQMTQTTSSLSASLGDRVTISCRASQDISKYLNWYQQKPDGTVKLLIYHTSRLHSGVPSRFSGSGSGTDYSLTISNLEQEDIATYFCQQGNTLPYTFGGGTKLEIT
Chain of FMC63 IgG antibody (as listed by the source): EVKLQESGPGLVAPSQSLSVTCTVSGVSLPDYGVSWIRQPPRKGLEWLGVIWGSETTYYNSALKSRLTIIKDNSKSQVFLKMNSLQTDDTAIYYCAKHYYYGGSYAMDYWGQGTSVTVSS
Chain of FMC63 scFv (as listed by the source): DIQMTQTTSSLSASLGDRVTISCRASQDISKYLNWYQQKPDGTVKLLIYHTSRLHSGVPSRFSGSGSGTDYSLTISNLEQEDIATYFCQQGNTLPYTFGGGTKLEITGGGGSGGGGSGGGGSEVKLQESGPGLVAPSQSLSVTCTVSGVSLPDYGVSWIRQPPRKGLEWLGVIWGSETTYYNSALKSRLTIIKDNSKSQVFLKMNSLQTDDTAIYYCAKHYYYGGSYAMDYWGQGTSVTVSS

For “Amph-K-C2 (GGGSASRICPWNCKELPSPPRIFGNR; cysteine pairing not given here; also: amphiphile lipid conjugate, site not given here)”, which “proliferation of CAR T cells in vivo (cell violet dilution)” value [1] is on record?
The value was “observed”.

With “amph-mimotope (RHCPWNCSLL; SEQ ID NO: 5) (cysteine pairing not given here; also: amphiphilic lipid tail conjugated, site not given here)” as the molecule, how does the “CAR-T cell activation measured by IFNγ secretion” value [2] read?
Its value is “significantly activated”.

Which “micelle stability on increasing number of guanines” value [3] does the source give for “lipo-G10T0-CG (DNA GGGGGGGGGGCG; DNA, backbone and methylation of C not given here; lipid conjugate)” here?
Its value is “did not further enhance micelle stability”.

Which “mimotope binding to FMC63 of RLCPWSCREL variants” value [4] does the source give for “RLCPWSAACREL (Synthetic FMC63 Mimotope Mutant) [SEQ ID NO: 52]” here?
Its value is “abolished”.

With “lipo-G8T2-CG (DNA GGGGGGGGTTCG; DNA, backbone and methylation of C not given here; lipid conjugate)” as the molecule, how does the “micelle stability on increasing number of guanines” value [3] read?
Its value is “did not further enhance micelle stability”.

Which “time for which FMC63 scFv labeling is retained after wash” value [5] does the source give for “K-A1 (PRKHSGRICPWNCKELDNPPFIFGNR; Synthetic FMC63 mimotope (A1))” here?
The value was at least 72 h.

For “RLCPWSACREL (Synthetic FMC63 Mimotope Mutant) [SEQ ID NO: 53]”, which “mimotope binding to FMC63 of RLCPWSCREL variants” value [4] is on record?
Its value is “abolished”.

For RHCPWNCSLL [Clone A1], which “mimotope binding to FMC63 after DTT” value [6] is on record?
The value was “abolished”.

For “lipo-G2T8-CG (DNA GGTTTTTTTTCG; DNA, backbone and methylation of C not given here; lipid conjugate)”, which “percentage of intact micelles” value [3] is on record?
Its value is 36%.

For “lipo-G0T10-CG (DNA TTTTTTTTTTCG; DNA, backbone and methylation of C not given here; lipid conjugate)”, which “percentage of intact micelles” value [3] is on record?
The value was 20%.

For “lipo-G6T4-CG (DNA GGGGGGTTTTCG; DNA, backbone and methylation of C not given here; lipid conjugate)”, which “percentage of intact micelles” value [3] is on record?
Its value is 90%.

For `CC[C@H](C)[C@H](NC(=O)[C@H](CCCNC(=N)N)NC(=O)[C@H](CO)NC(=O)[C@H](C)NC(=O)[C@H](CO)NC(=O)CCCC[C@@H]1SC[C@@H]2NC(=O)N[C@@H]21)C(=O)N[C@H]1CSSC[C@@H](C(=O)N[C@@H](CCCCN)C(=O)N[C@@H](CCC(=O)O)C(=O)N[C@@H](CC(C)C)C(=O)O)NC(=O)[C@H](CC(N)=O)NC(=O)[C@H](Cc2c[nH]c3ccccc23)NC(=O)[C@@H]2CCCN2C1=O` [SEQ ID NO: 95] (Biotin-SASRICPWNCKEL-OH; disulfide 6-10), which Kd [7] is on record?
Its Kd is 0.147 nM.

With `CC[C@H](C)[C@H](NC(=O)[C@H](CCCNC(=N)N)NC(=O)[C@H](CO)NC(=O)[C@H](C)NC(=O)[C@H](CO)NC(=O)CNC(=O)CNC(=O)CNC(=O)CCCC[C@@H]1SC[C@@H]2NC(=O)N[C@@H]21)C(=O)N[C@H]1CSSC[C@@H](C(=O)N[C@@H](CCCCN)C(=O)N[C@@H](CCC(=O)O)C(=O)N[C@@H](CC(C)C)C(=O)O)NC(=O)[C@H](CC(N)=O)NC(=O)[C@H](Cc2c[nH]c3ccccc23)NC(=O)[C@@H]2CCCN2C1=O` [SEQ ID NO: 96] (Biotin-GGGSASRICPWNCKEL-OH; disulfide 9-13) as the molecule, how does the Kd [7] read?
The Kd was 0.141 nM.

For “lipo-G4T6-CG (DNA GGGGTTTTTTCG; DNA, backbone and methylation of C not given here; lipid conjugate)”, which “percentage of intact micelles” value [3] is on record?
Its value is 73%.
